Reference: patent publication US8217029B2, “Oxazolidinone antibiotics” (Actelion Pharmaceuticals Ltd, priority 2007, dated 2012)
In brackets after ≈: the same amount, converted by molar mass.

Tested on: S aureus A798
Assay: Minimal inhibitory concentration (MIC), microdilution method in cation-adjusted Mueller-Hinton Broth following NCCLS guidelines
Type: cell-based
Conditions: pH of test medium 7.2-7.3
Procedure: These assays have been performed following the description given in “Methods for dilution Antimicrobial Susceptibility Tests for Bacteria that Grow Aerobically, 4th ed.; Approved standard: NCCLS Document M7-A4; National Committee for Clinical Laboratory Standards Villanova, Pa., USA, 1997”. Minimal inhibitory concentrations (MICs; mg/l) were determined in cation-adjusted Mueller-Hinton Broth by a microdilution method following NCCLS guidelines (National Committee for Clinical Laboratory Standards. Methods for Dilution Antimicrobial Susceptibility). The pH of the test medium was 7.2-7.3. All Example compounds were tested against several Gram positive and Gram negative bacteria.

Row | MIC | MIC S aureus A798 | SMILES
1 | 8 µg/mL (≈ 16.7 µM) |  | COc1ccc2nccc(N3CCN(CC4CN(c5cc6c(nn5)OCCO6)C(=O)O4)CC3)c2n1 (racemic) [Example 110, (RS)-3-(6,7-Dihydro-[1,4]dioxino[2,3-c]pyridazin-3-yl)-5-[4-(6-methoxy-[1,5]naphthyridin-4-yl)-piperazin-1-ylmethyl]-oxazolidin-2-one]
2 | ≤ 0.031 µg/mL |  | COc1ccc2nccc(N3CCCN(C[C@@H]4CN(c5ccc6c(c5)NC(=O)CO6)C(=O)O4)CC3)c2n1 [Example 105, 6-{(R)-5-[4-(6-Methoxy-[1,5]naphthyridin-4-yl)-[1,4]diazepan-1-ylmethyl]-2-oxo-oxazolidin-3-yl}-4H-benzo[1,4]oxazin-3-one]
3 | ≤ 0.031 µg/mL |  | COc1ccc2nccc(N3CC(N(C)C[C@@H]4CN(c5ccc(C)c(C)c5)C(=O)O4)C3)c2n1 [Example 138, (R)-3-(3,4-Dimethyl-phenyl)-5-({[1-(6-methoxy-[1,5]naphthyridin-4-yl)-azetidin-3-yl]-methyl-amino}-methyl)-oxazolidin-2-one]
4 |  | 0.125 µg/mL (≈ 0.27 µM) | COc1ccc2nccc(N3CC4C(C3)C4NC[C@@H]3CN(c4ccc(C)c(F)c4)C(=O)O3)c2n1 (stereo partly drawn) [Example 88, (R)-3-(3-Fluoro-4-methyl-phenyl)-5-{[(1a,5a,6a)-3-(6-methoxy-[1,5]naphthyridin-4-yl)-3-aza-bicyclo[3.1.0]hex-6-ylamino]-methyl}-oxazolidin-2-one]
5 | 0.063 µg/mL (≈ 0.132 µM) |  | COc1ccc2nccc(N3CCN(C[C@H]4CN(c5ccc6c(c5)OCCO6)C(=O)O4)CC3)c2n1 [Example 37, (S)-3-(2,3-Dihydro-benzo[1,4]dioxin-6-yl)-5-[4-(6-methoxy-[1,5]naphthyridin-4-yl)-piperazin-1-ylmethyl]-oxazolidin-2-one]
6 | ≤ 0.031 µg/mL |  | COc1ccc2nccc(N3CC(N(C)C[C@@H]4CN(c5ccc(Br)c(F)c5)C(=O)O4)C3)c2n1 [Example 141, (R)-3-(4-Bromo-3-fluoro-phenyl)-5-({[1-(6-methoxy-[1,5]naphthyridin-4-yl)-azetidin-3-yl]-methyl-amino}-methyl)-oxazolidin-2-one]
7 | ≤ 0.031 µg/mL |  | COc1ccc2ncc(F)c(N3CC[C@H](NC[C@@H]4CN(c5ccc6c(c5)NC(=O)CS6)C(=O)O4)C3)c2n1 [Example 65, 6-((R)-5-{[(S)-1-(3-Fluoro-6-methoxy-[1,5]naphthyridin-4-yl)-pyrrolidin-3-ylamino]-methyl}-2-oxo-oxazolidin-3-yl)-4H-benzo[1,4]thiazin-3-one]
8 | ≤ 0.031 µg/mL |  | COc1ccc2nccc(N3C[C@@H](O)[C@H](NC[C@@H]4CN(c5ccc6c(c5)NC(=O)CS6)C(=O)O4)C3)c2n1 (relative stereo) [Example 76, 6-((R)-5-{[(3R*,4R*)-4-Hydroxy-1-(6-methoxy-[1,5]naphthyridin-4-yl)-pyrrolidin-3-ylamino]-methyl}-2-oxo-oxazolidin-3-yl)-4H-benzo[1,4]thiazin-3-one]
9 | 0.25 µg/mL (≈ 0.54 µM) |  | COc1ccc2nccc(N3CC(N(C)C[C@@H]4CN(c5cccc(N(C)C)c5)C(=O)O4)C3)c2n1 [Example 140, (R)-3-(3-Dimethylamino-phenyl)-5-({[1-(6-methoxy-[1,5]naphthyridin-4-yl)-azetidin-3-yl]-methyl-amino}-methyl)-oxazolidin-2-one]
10 | ≤ 0.031 µg/mL |  | COc1ccc2ncc(F)c(N3CC[C@H](NC[C@@H]4CN(c5ccc6c(c5)NC(=O)CO6)C(=O)O4)C3)c2n1 [Example 64, 6-((R)-5-{[(S)-1-(3-Fluoro-6-methoxy-[1,5]naphthyridin-4-yl)-pyrrolidin-3-ylamino]-methyl}-2-oxo-oxazolidin-3-yl)-4H-benzo[1,4]oxazin-3-one]
11 | ≤ 0.031 µg/mL |  | CCc1ccc(N2C[C@@H](CN(C)C3CN(c4ccnc5ccc(OC)nc45)C3)OC2=O)cc1 [Example 137, (R)-3-(4-Ethyl-phenyl)-5-({[1-(6-methoxy-[1,5]naphthyridin-4-yl)-azetidin-3-yl]-methyl-amino}-methyl)-oxazolidin-2-one]
12 | ≤ 0.031 µg/mL |  | COc1ccc2nccc(N3CC[C@@H](NC(=O)[C@@H]4CN(c5ccc6c(c5)OCCO6)C(=O)O4)C3)c2n1 [Example 61, (S)-3-(2,3-Dihydro-benzo[1,4]dioxin-6-yl)-2-oxo-oxazolidine-5-carboxylic acid [(R)-1-(6-methoxy-[1,5]naphthyridin-4-yl)-pyrrolidin-3-yl]-amide]
13 |  | <=0.031 mg/l | COc1ccc2nccc(N3CC4C(C3)C4NC[C@@H]3CN(c4ccc5c(c4)NC(=O)CS5)C(=O)O3)c2n1 (stereo partly drawn) [Example 89, 6-((R)-5-{[(1α,5α,6α)-3-(6-Methoxy-[1,5]naphthyridin-4-yl)-3-aza-bicyclo[3.1.0]hex-6-ylamino]-methyl}-2-oxo-oxazolidin-3-yl)-4H-benzo[1,4]thiazin-3-one]
14 | 0.25 µg/mL (≈ 0.537 µM) |  | COc1ccc2nccc(N3CC(CNC(=O)[C@@H]4CN(c5ccc(C)c(F)c5)C(=O)O4)C3)c2n1 [Example 130, (S)-3-(3-Fluoro-4-methyl-phenyl)-2-oxo-oxazolidine-5-carboxylic acid [1-(6-methoxy-[1,5]naphthyridin-4-yl)-azetidin-3-ylmethyl]-amide]
15 | ≤ 0.031 µg/mL |  | COc1ccc2nccc(N3CCN(C[C@@H]4CN(c5ccccc5)C(=O)O4)CC3)c2n1 [Example 12, (R)-5-[4-(6-Methoxy-[1,5]naphthyridin-4-yl)-piperazin-1-ylmethyl]-3-phenyl-oxazolidin-2-one]
16 | ≤ 0.031 µg/mL |  | O=C1CSc2ccc(N3C[C@@H](CNC4CN(c5ccnc6ccc(F)cc56)C4)OC3=O)cc2N1 [Example 160, 6-((R)-5-{[1-(6-Fluoro-quinolin-4-yl)-azetidin-3-ylamino]-methyl}-2-oxo-oxazolidin-3-yl)-4H-benzo[1,4]thiazin-3-one]
17 | ≤ 0.031 µg/mL |  | COc1ccc2nccc(N3CCCN(C[C@@H]4CN(c5ccc6c(c5)OCCO6)C(=O)O4)CC3)c2n1 [Example 107, (R)-3-(2,3-Dihydro-benzo[1,4]dioxin-6-yl)-5-[4-(6-methoxy-[1,5]naphthyridin-4-yl)-[1,4]diazepan-1-ylmethyl]-oxazolidin-2-one]
18 | ≤ 0.031 µg/mL |  | COc1cnc2cccc(N3CC(NC[C@@H]4CN(c5ccc6c(c5)NC(=O)CS6)C(=O)O4)C3)c2c1 [Example 157, 6-((R)-5-{[1-(3-Methoxy-quinolin-5-yl)-azetidin-3-ylamino]-methyl}-2-oxo-oxazolidin-3-yl)-4H-benzo[1,4]thiazin-3-one]
19 | ≤ 0.031 µg/mL |  | COc1ccc2nccc(N3CC(N(C)C[C@@H]4CN(c5ccc(Br)c(C)c5)C(=O)O4)C3)c2n1 [Example 143, (R)-3-(4-Bromo-3-methyl-phenyl)-5-({[1-(6-methoxy-[1,5]naphthyridin-4-yl)-azetidin-3-yl]-methyl-amino}-methyl)-oxazolidin-2-one]
20 | ≤ 0.031 µg/mL |  | COc1ccc2nccc(N3CCN(C[C@@H]4CN(c5ccc6c(c5)OCO6)C(=O)O4)CC3)c2n1 [Example 35, (R)-3-Benzo[1,3]dioxol-5-yl-5-[4-(6-methoxy-[1,5]naphthyridin-4-yl)-piperazin-1-ylmethyl]-oxazolidin-2-one]
21 | ≤ 0.031 µg/mL |  | COc1ccc2nccc(N3CC(NC[C@@H]4CN(c5ccc6c(c5)NC(=O)CS6)C(=O)O4)C3)c2n1 [Example 53, 6-((R)-5-{[1-(6-Methoxy-[1,5]naphthyridin-4-yl)-azetidin-3-ylamino]-methyl}-2-oxo-oxazolidin-3-yl)-4H-benzo[1,4]thiazin-3-one]
22 | ≤ 0.031 µg/mL |  | COc1ccc2nccc(N3CCN(C[C@@H]4CN(c5ccc(C)c(Br)c5)C(=O)O4)CC3)c2n1 [Example 32, (R)-3-(3-Bromo-4-methyl-phenyl)-5-[4-(6-methoxy-[1,5]naphthyridin-4-yl)-piperazin-1-ylmethyl]-oxazolidin-2-one]
23 | 0.5 µg/mL (≈ 1.07 µM) |  | COc1ccc2nccc(N3CC(C(=O)NC[C@@H]4CN(c5ccc(C)c(F)c5)C(=O)O4)C3)c2n1 [Example 148, 1-(6-Methoxy-[1,5]naphthyridin-4-yl)-azetidine-3-carboxylic acid [(R)-3-(3-fluoro-4-methyl-phenyl)-2-oxo-oxazolidin-5-ylmethyl]-amide]
24 | ≤ 0.031 µg/mL |  | COc1ccc2nccc(N3C[C@@H](NC[C@@H]4CN(c5ccc6c(c5)NC(=O)CS6)C(=O)O4)[C@H](OC)C3)c2n1 (relative stereo) [Example 75, 6-((R)-5-{[(3R*,4R*)-4-Methoxy-1-(6-methoxy-[1,5]naphthyridin-4-yl)-pyrrolidin-3-ylamino]-methyl}-2-oxo-oxazolidin-3-yl)-4H-benzo[1,4]thiazin-3-one]
25 | 2 µg/mL (≈ 4.77 µM) |  | COc1ccc2nccc(N3CC(N(C)C[C@@H]4CN(c5ccccc5)C(=O)O4)C3)c2n1 [Example 133, (R)-5-({[1-(6-Methoxy-[1,5]naphthyridin-4-yl)-azetidin-3-yl]-methyl-amino}-methyl)-3-phenyl-oxazolidin-2-one]
26 |  | <=0.031 mg/l | COc1ccc2nccc(N3CC[C@@H]4CN(C[C@@H]5CN(c6ccc7c(c6)NC(=O)CS7)C(=O)O5)C[C@@H]43)c2n1 (relative stereo) [Example 91, 6-{{(R)-5-[(3aR*,6aR*)-1-(6-Methoxy-[1,5]naphthyridin-4-yl)-hexahydro-pyrrolo[3,4-b]pyrrol-5-yl]-methyl}-2-oxo-oxazolidin-3-yl}-4H-benzo[1,4]thiazin-3-one]
27 | 0.5 µg/mL (≈ 0.96 µM) |  | COc1ccc2nccc(N3CCN(C[C@@H]4CN(c5ccc6c(c5)NC(=O)CS6)C(=O)O4)CC3=O)c2n1 [Example 101, 6-{(R)-5-[4-(6-Methoxy-[1,5]naphthyridin-4-yl)-3-oxo-piperazin-1-ylmethyl]-2-oxo-oxazolidin-3-yl}-4H-benzo[1,4]thiazin-3-one]
28 | ≤ 0.031 µg/mL |  | COc1ccc2nccc(N3CCCN(C(=O)[C@@H]4CN(c5ccc6c(c5)OCCO6)C(=O)O4)CC3)c2n1 [Example 109, (S)-3-(2,3-Dihydro-benzo[1,4]dioxin-6-yl)-5-[4-(6-methoxy-[1,5]naphthyridin-4-yl)-[1,4]diazepane-1-carbonyl]-oxazolidin-2-one]
